Source: patent US20260085068A1, “A NOVEL CRYSTALLINE FORM OF PRITELIVIR” (Assembly Biosciences, Inc., priority 2022, published 2026)
≈ marks a conversion by molar mass, not a printed value.

Assay: Solubility determination in aqueous vehicle (0.9% NaCl and 0.5% polysorbate 80), filtrate analyzed by HPLC
Type: physicochemical
Protocol: Sample preparation: excess Type 8 was added to the vehicle containing 0.9% NaCl and 0.5% polysorbate 80 to achieve ˜3 mg/mL suspension. The mixture was sonicated for 15 minutes, then agitated at 500 rpm at room temperature. At 24 hours, the mixture was filtrated, and filtrate was analyzed by HPLC to determine the solubility. • Instrument: Agilent 1260 • Column: ACE ultracore super C18 (100 mm*4.6 mm*2.5 μm) (P/N: CORE-25A-1046U) • Wavelength: 234 nm • Column Temperature: 20° C. • Column Flow: 1.0 mL/min • Acquisition time: 25 min • Injection volume: 5 μL • Retention time: ˜14 min • Mobile Phase A: 5 mM (NH4)2HPO4 and 5 mM of NH4H2PO4 in H2O • Mobile Phase B: ACN [table] The solubility of Form C (hemihydrate as disclosed in WO 2018/096170) was determined in the same media used to determine the solubility of Type 8 as described above. Sample preparation: excess Form C was added to the vehicle containing 0.9% NaCl and 0.5% polysorbate 80. The mixture was sonicated for 15 minutes, then agitated at 500 rpm at room temperature. At 24 hours, the mixture was filtrated, and filtrate was analyzed by HPLC to determine the solubility.

solubility at 24 h (aqueous vehicle (0.9% NaCl and 0.5% polysorbate 80), aqueous with cosolvent or surfactant or cyclodextrin, thermodynamic from solid, RT, 0.9% NaCl and 0.5% polysorbate 80): ~70.7 µg/mL (≈ 176 µM) | solubility (room temperature, aqueous media containing 0.9% NaCl and 0.5% polysorbate 80, at 24 hours): around 70.7 μg/mL
SMILES: Cc1nc(N(C)C(=O)Cc2ccc(-c3ccccn3)cc2)sc1S(N)(=O)=O [Type 8, N-methyl-N-(4-methyl-5-sulfamoylthiazol-2-yl)-2-(4-(pyridin-2-yl)phenyl) acetamide]
